Test results as given in patent US20150196544A1, “NOVEL BENZO[d][1,3]-DIOXOL DERIVATIVES” (priority 2005, published 2015).

Key:
[1] = system: pooled human liver microsomes; test: Human liver microsome metabolic stability assay; format: in vitro ADME; conditions: for % Remaining 30 min / % Remaining 60 min / % Remaining 120 min: pooled human liver microsomes 1.0 mg/mL, 1 μM test compound, 37° C.
Description: The objectives of the present study were to determine the metabolic stability of the test compounds in pooled liver microsomal incubations and to perform full scan LC-MS analysis for the detection of major metabolites. Samples of the test compounds, exposed to pooled human liver microsomes, were analyzed using HPLC-MS (or MS/MS) detection. For determining metabolic stability, multiple reaction monitoring (MRM) was used to measure the disappearance of the test compounds. For metabolite detection, Q1 full scans were used as survey scans to detect the major metabolites.
Human liver microsomes were obtained from Absorption Systems L.P. (Exton, Pa.). The incubation mixture was prepared as follows:
The reaction mixture, minus cofactors, was prepared. An aliquot of the reaction mixture (without cofactors) was incubated in a shaking water bath at 37° C. for 3 minutes. Another aliquot of the reaction mixture was prepared as the negative control. The test compound was added into both the reaction mixture and the negative control at a final concentration of 1 μM. An aliquot of the reaction mixture was prepared as a blank control, by the addition of plain organic solvent (not the test compound). The reaction was initiated by the addition of cofactors (not into the negative controls), and then incubated in a shaking water bath at 37° C. Aliquots (200 μL) were withdrawn in triplicate at 0, 15, 30, 60, and 120 minutes and combined with 800 μL of ice-cold 50/50 acetonitrile/deionized water to terminate the reaction. The positive controls, testosterone and propranolol, were run simultaneously with the test compounds in separate reactions. All samples were analyzed using LC-MS (or MS/MS). An LC-MRM-MS/MS method was used for metabolic stability. Also, Q1 full scan LC-MS methods were performed on the blank matrix and the test compound incubation samples. The Q1 scans served as survey scans to identify any sample unique peaks that might represent the possible metabolites. The masses of these potential metabolites can be determined from the Q1 scans.
The test compounds were evaluated in the human liver microsome assay described above along with paroxetine as a control. The columns of Table 2 labelled “% remaining” refer to the percentage of each test compound remaining after 30, 60 and 120 minute intervals in the human microsomal assay.

CYP2D6 [2] = molecular target: T1, CYP2D6 (Homo sapiens, UniProt P10635); conditions: clinical; cited from earlier work
T1 sequence (P10635 whole entry): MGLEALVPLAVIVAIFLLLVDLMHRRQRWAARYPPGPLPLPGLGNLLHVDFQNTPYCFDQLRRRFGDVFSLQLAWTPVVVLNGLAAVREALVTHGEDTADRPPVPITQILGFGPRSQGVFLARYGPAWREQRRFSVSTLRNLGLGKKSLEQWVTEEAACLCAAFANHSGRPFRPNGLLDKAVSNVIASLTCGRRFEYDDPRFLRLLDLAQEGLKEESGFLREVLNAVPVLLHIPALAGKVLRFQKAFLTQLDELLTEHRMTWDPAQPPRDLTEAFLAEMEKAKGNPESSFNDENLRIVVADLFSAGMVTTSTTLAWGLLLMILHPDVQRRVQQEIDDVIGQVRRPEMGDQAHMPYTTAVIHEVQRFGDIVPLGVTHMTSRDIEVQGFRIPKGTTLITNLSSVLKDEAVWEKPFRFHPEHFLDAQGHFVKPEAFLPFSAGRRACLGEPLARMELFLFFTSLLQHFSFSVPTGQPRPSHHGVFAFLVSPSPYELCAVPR

[3] = 30 mg oral solution, radiolabeled, healthy volunteers, cited from earlier work
[4] = cited from earlier work
CYP2D6 [5] = molecular target: T1, CYP2D6; conditions: mechanism-based; cited from earlier work
mice = test: Forced tail suspension test, immobility time; format: in vivo; conditions: 15 mg/kg oral (as free base), versus vehicle control
Description: The product of Example 11 is tested at MDS Pharma by oral administration to mice (n=8) to determine its effect on total immobility time during forced tail suspension, using essentially the procedure of “Drug Discovery and Evaluation”, Vogel H G and Vogel W H (eds.), p. 304, 1997, Springer-Verlag, New York.

% Remaining 30 min [1] [%]	% Remaining 60 min [1] [%]	% Remaining 120 min [1] [%]	stability in the microsome assay (in words) ([1]; human liver microsomes, summary of Table 2)	Compound	reduction in CYP2D6 activity (in words) (CYP2D6 [2])	excreted in the feces as parent compound ([3]; 10-day period)	excreted in the feces, total ([3]; 10-day period)	excreted in the urine as metabolites ([3]; 10-day period) [%]	excreted in the urine as parent compound ([3]; 10-day period) [%]	excreted in the urine, total ([3]; 10-day post-dosing period)	half-life, poor metabolizers versus extensive metabolizers ([4]; European cohort, low versus higher CYP2D6 activity)	coefficients of variability across Cmax, Cmin and AUC ([4]; steady state, test population)	inactivation of CYP2D6 (in words) (CYP2D6 [5])	total immobility time during forced tail suspension (mice)
29	26	16	–	Cl.[2H]C1([2H])Oc2ccc(OC[C@@H]3CNCC[C@H]3c3ccc(F)cc3)cc2O1 [A, (3S,4R)-3-((2,2-dideuterobenzo[d][1,3]dioxol-5-yloxy)methyl)-4-(4-fluorophenyl)piperidine hydrochloride]	–	–	–	–	–	–	–	–	–	–
22	10	6	–	Cl.[2H]C1([2H])Oc2ccc(OC([2H])([2H])[C@@H]3CNCC[C@H]3c3ccc(F)cc3)cc2O1 [B, (3S,4R)-3-((2,2-dideuterobenzo[d][1,3]dioxol-5-yloxy)dideuteromethyl)-4-(4-fluorophenyl)piperidine hydrochloride]	–	–	–	–	–	–	–	–	–	–
51	51	44	relative stability	Fc1ccc([C@@H]2CCNC[C@H]2COc2ccc3c(c2)OCO3)cc1 [Compound 1, (3S,4R)-3-((benzo[d][1,3]dioxol-5-yloxy)methyl)-4-(4-fluorophenyl)piperidine]	dose-dependent, highly significant reduction	less than 1%	About 36%	62	2	approximately 64%	approximately 3 fold	30-70%	highly potent, mechanism based inactivator	–
–	–	–	–	CC(C)(C)OC(=O)N1CC[C@@H](c2ccc(F)cc2)[C@H](CO)C1 [Example 11, (3S,4R)-tert-butyl 4-(4-fluorophenyl)-3-(hydroxymethyl)piperidine-1-carboxylate]	–	–	–	–	–	–	–	–	–	statistical reduction
